Test results as given in ChEMBL document CHEMBL3217725, “Peptidomimetic nitriles as selective inhibitors for the malarial cysteine protease falcipain-2” (Medchemcomm, 2011).
pKi: −log10 of the molar value. Calls of active or inactive are those of the source. No cut-off for these calls is given here. Where a SMILES comes first, the peptide text is derived from it. [ ]: non-standard residue; d: D form. The star is where a group is joined. Ac6c = NC1(C(=O)O)CCCCC1; Cbz = O=C(OCc1ccccc1)*

Experiments:
Procathepsin L [1] = biological target: T1, Procathepsin L (Homo sapiens, UniProt P07711); assay: Inhibition of human cathepsin L at 20 uM relative to control
Target sequence in this assay (P07711 114-333 limits assumed): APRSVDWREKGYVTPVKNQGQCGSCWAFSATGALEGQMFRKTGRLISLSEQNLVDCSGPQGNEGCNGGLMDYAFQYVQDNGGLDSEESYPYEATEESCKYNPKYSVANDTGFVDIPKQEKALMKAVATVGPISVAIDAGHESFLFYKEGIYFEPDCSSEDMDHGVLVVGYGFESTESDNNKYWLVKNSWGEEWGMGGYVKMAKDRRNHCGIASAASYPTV

Cathepsin B [2] = biological target: T2, Cathepsin B (Homo sapiens, UniProt P07858); assay: Inhibition of human cathepsin B at 20 uM relative to control
[3] = Inhibition of Plasmodium falciparum recombinant falcipain 2 using Cbz-Leu-Arg-AMC as substrate after 10 mins by fluorescence spectrophotometric analysis
Plasmodium falciparum = assay: Inhibition of Plasmodium falciparum recombinant falcipain 2 using Cbz-Leu-Arg-AMC as substrate at 20 uM after 10 mins by fluorescence spectrophotometric analysis relative to control
Homo sapiens = species on record: Homo sapiens; assay: Inhibition of human alpha-chymotrypsin using Suc-Leu-Tyr-AMC as substrate assessed as residual activity after 10 mins by Dixon plot analysis
Procathepsin L [4] = biological target: T1, Procathepsin L; assay: Inhibition of human cathepsin L
Target sequence in this assay (P07711 whole entry): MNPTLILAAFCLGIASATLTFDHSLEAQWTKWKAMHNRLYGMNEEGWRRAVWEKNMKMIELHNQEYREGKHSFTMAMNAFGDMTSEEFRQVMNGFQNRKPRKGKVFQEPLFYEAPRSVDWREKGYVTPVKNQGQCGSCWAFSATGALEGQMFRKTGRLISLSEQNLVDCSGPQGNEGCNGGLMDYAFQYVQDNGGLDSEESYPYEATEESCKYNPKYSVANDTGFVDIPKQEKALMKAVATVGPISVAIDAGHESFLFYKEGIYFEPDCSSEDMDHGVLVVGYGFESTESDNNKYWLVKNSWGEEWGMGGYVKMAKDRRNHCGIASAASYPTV

Cathepsin B [5] = biological target: T2, Cathepsin B; assay: Inhibition of human cathepsin B

SMILES	inhibition (Procathepsin L [1]) [%]	inhibition (Cathepsin B [2]) [%]	pKi [3]	inhibition (Plasmodium falciparum) [%]	Activity (Homo sapiens)	pKi (Procathepsin L [4])	pKi (Cathepsin B [5])
N#CCNC(=O)C1(NC(=O)CCc2cccnc2)CCCCC1	< 35	< 35	5.03	< 35	inactive	–	–
CC(C)(NC(=O)OCc1ccccc1)C(=O)NCC#N	< 35	< 35	–	< 35	inactive	–	–
O=CCNC(=O)C1(NC(=O)OCc2ccccc2)CCCCC1 (Cbz-[Ac6c]-Gly-aldehyde)	< 35	< 35	7.19	< 35	inactive	6.09	5.87
N#CCNC(=O)C1(NC(=O)OCc2ccccc2)CCCCC1	< 35	< 35	5.92	< 35	inactive	4.58	–
COc1ccc(CCC(=O)NC2(C(=O)NCC#N)CCCCC2)cc1OC	< 35	< 35	5.14	< 35	inactive	–	–
N#CCNC(=O)C1(NC(=O)CCc2ccco2)CCCCC1	< 35	< 35	4.76	< 35	inactive	–	–
N#CCNC(=O)C1(NC(=O)CCc2cccs2)CCCCC1	< 35	< 35	5.06	< 35	inactive	–	–
N#CCNC(=O)C1(NC(=O)C2CCCC2)CCCCC1	< 35	< 35	5.12	< 35	inactive	–	–
N#CCNC(=O)C1(NC(=O)CCC2CCCC2)CCCCC1	< 35	< 35	5.09	< 35	inactive	4.53	4.60
N#CCNC(=O)C1(NC(=O)[C@H]2C[C@@H]2c2ccccc2)CCCCC1 (racemic)	< 35	< 35	5.68	< 35	inactive	4.88	5.30
COc1ccccc1CCC(=O)NC1(C(=O)NCC#N)CCCCC1	< 35	< 35	5.28	< 35	inactive	4.60	–
N#C[C@@H]1CCCN1C(=O)C1(NC(=O)OCc2ccccc2)CCCCC1	< 35	< 35	–	< 35	inactive	–	–
COc1ccc(CCC(=O)NC2(C(=O)NCC#N)CCCCC2)cc1	< 35	< 35	5.05	< 35	inactive	–	–
